# Reference: patent US20260109712A1, “RIFAMYCINS FOR NONTUBERCULOUS MYCOBACTERIA” (priority 2022, published 2026)
# Where two headings read alike, the source gives them in different places.
# What was measured:
# Δarr M. abscessus = assay: MIC assay, isogenic arr-deleted strain; type: cell-based, Mycobacterium abscessus; settings: arr-deleted strain; 90% growth inhibition
# Experimental: (§1) MIC determination was carried out in 96-well plate format as previously described.^[13-14] 96-well plates were initially set up with 100 μL of 7H9 per well. For each compound, a ten-point two-fold dilution series starting at twice the desired highest concentration was dispensed onto the 96-well plates using a Tecan D300e Digital Dispenser, with the DMSO concentration normalized to 2%. M. abscessus culture grown to mid-log phase (OD600=0.4-0.6) was diluted to OD600=0.1 (1×10^7 CFU/mL). […] Untreated control wells are included on each plate that contain bacteria suspension and 1% DMSO. Plates were sealed with parafilm, stored in boxes with wet paper towels and incubated at 37° C. with shaking (110 RPM). Plates were incubated for 3 days. To determine growth, OD600 was measured using a Tecan Infinite M200 plate reader on Day 0 and Day 3. Two biological replicates were performed. Clarithromycin was included in each experiment as a positive control.
# (§2) For each well on the 96-well plate, bacterial growth was calculated by subtracting the Day 0 OD600 value from the Day 3 OD600 value. […] For compound-containing wells, percentage growth was calculated by dividing their growth values by the average drug-free bacterial growth for the compound series and multiplying by 100. For each compound series, we plotted percentage growth versus compound concentration.
# M. abscessus ATCC 19977 = assay: MIC assay in 96-well plate format, wild-type strain; type: cell-based, Mycobacterium abscessus; settings: for MIC ratio: WT MIC/Δarr strain MIC
# Experimental: as §1, §2
# [1] = Plasma protein binding assay (rapid equilibrium dialysis); type: in vitro ADME; settings: 4 h, 10000 ng/mL
# Experimental: DMSO stocks were spiked into plasma to a concentration of 10,000 ng/mL. 200 μL of spiked plasma was pipetted into the sample chamber of the rapid equilibrium dialysis (RED) cartridge. 350 μL of PBS was added to the adjacent cartridge. The plate containing the RED was sealed and incubated at 37° C. on the thermomixer at 300 RPM for 4 h. After incubation, 50 μL aliquots of plasma were removed and added to 50 μL of blank plasma in a deep well plate (1:1). Similarly, 50 μL aliquots of PBS were removed and added to 50 μL of blank plasma. This created an identical matrix between buffer and non-buffer samples. Samples were processed and quantified as specified in the LC-MS/MS analytical method.
# [2] = M. abscessus ATCC 19977, 90% growth inhibition, read-out: WT Mab MIC
# [3] = Mycobacterium abscessus ATCC 19977, Table 11, read-out: MIC
# [4] = Mycobacteroides abscessus, ATCC19977, Table 15, heterocyclic aromatic carbamates, read-out: WT Mab MIC
# [5] = Mycobacteroides abscessus, ATCC19977, Table 14, carbamate analogs, read-out: WT Mab MIC
smiles,measurement,setting,value
CCC(C)C(=O)OC1C(C)C(OC)C=COC2(C)Oc3c(C)c(O)c4c(c3C2=O)C2=NC3(CCN(CC(C)C)CC3)NC2=C(NC(=O)C(C)=CC=CC(C)C(O)C(C)C(O)C1C)C4=O (mixture of isomers) [5k],Δarr Mab MIC,Δarr M. abscessus,0.028 µM
same,MIC,M. abscessus ATCC 19977; [2],1.1 µM
same,MIC ratio,M. abscessus ATCC 19977,39.3
"CO[C@H]1/C=C/O[C@@]2(C)Oc3c(C)c(O)c4c(c3C2=O)C2=NC3(CCN(CC(C)C)CC3)NC2=C(NC(=O)/C(C)=C/C=C/[C@H](C)[C@H](O)[C@@H](C)[C@@H](O)[C@@H](C)[C@H](OC(=O)c2cccc(C)c2)[C@@H]1C)C4=O [5c, 25-O-(3-methylbenzoyl)-25-O-desacetyrifabutin]",Δarr Mab MIC,Δarr M. abscessus,0.065 µM
same,MIC,M. abscessus ATCC 19977; [2],0.075 µM
same,MIC ratio,M. abscessus ATCC 19977,1.2
"CO[C@H]1/C=C/O[C@@]2(C)Oc3c(C)c(O)c4c(c3C2=O)C2=NC3(CCN(CC(C)C)CC3)NC2=C(NC(=O)/C(C)=C/C=C/[C@H](C)[C@H](O)[C@@H](C)[C@@H](O)[C@@H](C)[C@H](OC(=O)c2ccc(C)cc2)[C@@H]1C)C4=O [5d, 25-O-(4-methylbenzoyl)-25-O-desacetyrifabutin]",Δarr Mab MIC,Δarr M. abscessus,0.11 µM
same,MIC,M. abscessus ATCC 19977; [2],0.2 µM
same,MIC ratio,M. abscessus ATCC 19977,1.8
CO[C@H]1/C=C/O[C@@]2(C)Oc3c(C)c(O)c4c(c3C2=O)C2=NC3(CCN(CC(C)C)CC3)NC2=C(NC(=O)/C(C)=C/C=C/[C@H](C)[C@H](O)[C@@H](C)[C@@H](O)[C@@H](C)[C@H](OC(=O)N2CCN(C)C(C)C2)[C@@H]1C)C4=O (stereo partly drawn) [UMN52],MIC,M. abscessus ATCC 19977; [3],0.097 µM
"CO[C@H]1/C=C/O[C@@]2(C)Oc3c(C)c(O)c4c(c3C2=O)C2=NC3(CCN(CC(C)C)CC3)NC2=C(NC(=O)/C(C)=C/C=C/[C@H](C)[C@H](O)[C@@H](C)[C@@H](O)[C@@H](C)[C@H](OC(=O)c2cc(Cl)c(Cl)cc2C(=O)O)[C@@H]1C)C4=O [UMN99, 25-O-(6-carboxyl-3,4-dichlorobenzoyl)-25-O-desacetyrifabutin]",MIC,M. abscessus ATCC 19977; [3],0.1 µM
CO[C@H]1/C=C/O[C@@]2(C)Oc3c(C)c(O)c4c(c3C2=O)C2=NC3(CCN(CC(C)C)CC3)NC2=C(NC(=O)/C(C)=C/C=C/[C@H](C)[C@H](O)[C@@H](C)[C@@H](O)[C@@H](C)[C@H](OC(=O)NCc2cn(-c3cccc(Br)c3)nn2)[C@@H]1C)C4=O [UMN104],MIC,M. abscessus ATCC 19977; [3],0.032 µM
CO[C@H]1/C=C/O[C@@]2(C)Oc3c(C)c(O)c4c(c3C2=O)C2=NC3(CCN(CC(C)C)CC3)NC2=C(NC(=O)/C(C)=C/C=C/[C@H](C)[C@H](O)[C@@H](C)[C@@H](O)[C@@H](C)[C@H](OC(=O)Nc2ccccc2F)[C@@H]1C)C4=O [UMN106],MIC,M. abscessus ATCC 19977; [3],0.034 µM
CO[C@H]1/C=C/O[C@@]2(C)Oc3c(C)c(O)c4c(c3C2=O)C2=NC3(CCN(CC(C)C)CC3)NC2=C(NC(=O)/C(C)=C/C=C/[C@H](C)[C@H](O)[C@@H](C)[C@@H](O)[C@@H](C)[C@H](OC(=O)Nc2cccc(F)c2)[C@@H]1C)C4=O [UMN107],MIC,M. abscessus ATCC 19977; [3],0.1 µM
CO[C@H]1/C=C/O[C@@]2(C)Oc3c(C)c(O)c4c(c3C2=O)C2=NC3(CCN(CC(C)C)CC3)NC2=C(NC(=O)/C(C)=C/C=C/[C@H](C)[C@H](O)[C@@H](C)[C@@H](O)[C@@H](C)[C@H](OC(=O)Nc2ccc(F)cc2)[C@@H]1C)C4=O [UMN108],MIC,M. abscessus ATCC 19977; [3],0.062 µM
CO[C@H]1/C=C/O[C@@]2(C)Oc3c(C)c(O)c4c(c3C2=O)C2=NC3(CCN(CC(C)C)CC3)NC2=C(NC(=O)/C(C)=C/C=C/[C@H](C)[C@H](O)[C@@H](C)[C@@H](O)[C@@H](C)[C@H](OC(=O)Nc2ccccn2)[C@@H]1C)C4=O [UMN117],ƒu,[1],0.9%
same,MIC,M. abscessus ATCC 19977; [4],0.025 µM
CO[C@H]1/C=C/O[C@@]2(C)Oc3c(C)c(O)c4c(c3C2=O)C2=NC3(CCN(CC(C)C)CC3)NC2=C(NC(=O)/C(C)=C/C=C/[C@H](C)[C@H](O)[C@@H](C)[C@@H](O)[C@@H](C)[C@H](OC(=O)Nc2ccnnc2)[C@@H]1C)C4=O [UMN119],ƒu,[1],6.1%
same,MIC,M. abscessus ATCC 19977; [4],0.05 µM
COc1ccc(S(=O)(=O)NC(=O)O[C@H]2[C@H](C)[C@H](O)[C@H](C)[C@@H](O)[C@@H](C)/C=C/C=C(\C)C(=O)NC3=C4NC5(CCN(CC(C)C)CC5)N=C4c4c(c(O)c(C)c5c4C(=O)[C@@](C)(O/C=C/[C@H](OC)[C@H]2C)O5)C3=O)cc1 [UMN122],MIC,M. abscessus ATCC 19977; [3],0.14 µM
CO[C@H]1/C=C/O[C@@]2(C)Oc3c(C)c(O)c4c(c3C2=O)C2=NC3(CCN(CC(C)C)CC3)NC2=C(NC(=O)/C(C)=C/C=C/[C@H](C)[C@H](O)[C@@H](C)[C@@H](O)[C@@H](C)[C@H](OC(=O)Nc2nccc3ccccc23)[C@@H]1C)C4=O [UMN124],MIC,M. abscessus ATCC 19977; [3],0.027 µM
CO[C@H]1/C=C/O[C@@]2(C)Oc3c(C)c(O)c4c(c3C2=O)C2=NC3(CCN(CC(C)C)CC3)NC2=C(NC(=O)/C(C)=C/C=C/[C@H](C)[C@H](O)[C@@H](C)[C@@H](O)[C@@H](C)[C@H](OC(=O)Nc2ccc3cnccc3n2)[C@@H]1C)C4=O [UMN127],MIC,M. abscessus ATCC 19977; [3],0.03 µM
CO[C@H]1/C=C/O[C@@]2(C)Oc3c(C)c(O)c4c(c3C2=O)C2=NC3(CCN(CC(C)C)CC3)NC2=C(NC(=O)/C(C)=C/C=C/[C@H](C)[C@H](O)[C@@H](C)[C@@H](O)[C@@H](C)[C@H](OC(=O)Nc2cnn3ccccc23)[C@@H]1C)C4=O [UMN129],MIC,M. abscessus ATCC 19977; [3],0.044 µM
CO[C@H]1/C=C/O[C@@]2(C)Oc3c(C)c(O)c4c(c3C2=O)C2=NC3(CCN(CC(C)C)CC3)NC2=C(NC(=O)/C(C)=C/C=C/[C@H](C)[C@H](O)[C@@H](C)[C@@H](O)[C@@H](C)[C@H](OC(=O)Nc2cnc3cc(C)nn3c2)[C@@H]1C)C4=O [UMN130],MIC,M. abscessus ATCC 19977; [3],0.049 µM
CO[C@H]1/C=C/O[C@@]2(C)Oc3c(C)c(O)c4c(c3C2=O)C2=NC3(CCN(CC(C)C)CC3)NC2=C(NC(=O)/C(C)=C/C=C/[C@H](C)[C@H](O)[C@@H](C)[C@@H](O)[C@@H](C)[C@H](OC(=O)Nc2cnc3ccccc3n2)[C@@H]1C)C4=O [UMN134],MIC,M. abscessus ATCC 19977; [3],0.03 µM
CO[C@H]1/C=C/O[C@@]2(C)Oc3c(C)c(O)c4c(c3C2=O)C2=NC3(CCN(CC(C)C)CC3)NC2=C(NC(=O)/C(C)=C/C=C/[C@H](C)[C@H](O)[C@@H](C)[C@@H](O)[C@@H](C)[C@H](OC(=O)Nc2cn3ccccc3n2)[C@@H]1C)C4=O [UMN136],MIC,M. abscessus ATCC 19977; [3],0.061 µM
CO[C@H]1/C=C/O[C@@]2(C)Oc3c(C)c(O)c4c(c3C2=O)C2=NC3(CCN(CC(C)C)CC3)NC2=C(NC(=O)/C(C)=C/C=C/[C@H](C)[C@H](O)[C@@H](C)[C@@H](O)[C@@H](C)[C@H](OC(=O)Nc2cc3ccccn3n2)[C@@H]1C)C4=O [UMN142],MIC,M. abscessus ATCC 19977; [3],0.033 µM
CO[C@H]1/C=C/O[C@@]2(C)Oc3c(C)c(O)c4c(c3C2=O)C2=NC3(CCN(CC(C)C)CC3)NC2=C(NC(=O)/C(C)=C/C=C/[C@H](C)[C@H](O)[C@@H](C)[C@@H](O)[C@@H](C)[C@H](OC(=O)Nc2cn3ccsc3n2)[C@@H]1C)C4=O [UMN145],MIC,M. abscessus ATCC 19977; [3],0.065 µM
CO[C@H]1/C=C/O[C@@]2(C)Oc3c(C)c(O)c4c(c3C2=O)C2=NC3(CCN(CC(C)C)CC3)NC2=C(NC(=O)/C(C)=C/C=C/[C@H](C)[C@H](O)[C@@H](C)[C@@H](O)[C@@H](C)[C@H](OC(=O)NC2CCN(C)CC2)[C@@H]1C)C4=O [UMN146],ƒu,[1],10.8%
same,MIC,M. abscessus ATCC 19977; [5],0.09 µM
CO[C@H]1/C=C/O[C@@]2(C)Oc3c(C)c(O)c4c(c3C2=O)C2=NC3(CCN(CC(C)C)CC3)NC2=C(NC(=O)/C(C)=C/C=C/[C@H](C)[C@H](O)[C@@H](C)[C@@H](O)[C@@H](C)[C@H](OC(=O)NC2CCN(C(C)C)CC2)[C@@H]1C)C4=O [UMN147],ƒu,[1],7.5%
same,MIC,M. abscessus ATCC 19977; [5],0.098 µM
CCN1CCC(NC(=O)O[C@H]2[C@H](C)[C@H](O)[C@H](C)[C@@H](O)[C@@H](C)/C=C/C=C(\C)C(=O)NC3=C4NC5(CCN(CC(C)C)CC5)N=C4c4c(c(O)c(C)c5c4C(=O)[C@@](C)(O/C=C/[C@H](OC)[C@H]2C)O5)C3=O)CC1 [UMN149],ƒu,[1],10.4%
same,MIC,M. abscessus ATCC 19977; [5],0.078 µM
CO[C@H]1/C=C/O[C@@]2(C)Oc3c(C)c(O)c4c(c3C2=O)C2=NC3(CCN(CC(C)C)CC3)NC2=C(NC(=O)/C(C)=C/C=C/[C@H](C)[C@H](O)[C@@H](C)[C@@H](O)[C@@H](C)[C@H](OC(=O)NC2CCN(CC(C)C)CC2)[C@@H]1C)C4=O [UMN150],ƒu,[1],3.6%
same,MIC,M. abscessus ATCC 19977; [5],0.054 µM
